Test results reported in US20120121591A1 (priority 2009, published 2012).
Read-outs that look alike come from different tables or passages of the source.

How the values were obtained:
Type in all cases: cell-based
[1] = system: IL-2 secretion from T cells in human whole blood; settings: read-out: WB (IL-2) IC50 (nM, Avg)
[2] = system: IFN-g secretion from T cells in human whole blood
hKv1.3 = hKv1.3 (Homo sapiens, UniProt P22001); experiment: cell-based; settings: Kv1.3 (IWQ) IC50 (nM, Avg)
[3] = read-out: WB (IFNg) IC5- (nM, Avg)

Chain of hKv1.3 (P22001 whole entry): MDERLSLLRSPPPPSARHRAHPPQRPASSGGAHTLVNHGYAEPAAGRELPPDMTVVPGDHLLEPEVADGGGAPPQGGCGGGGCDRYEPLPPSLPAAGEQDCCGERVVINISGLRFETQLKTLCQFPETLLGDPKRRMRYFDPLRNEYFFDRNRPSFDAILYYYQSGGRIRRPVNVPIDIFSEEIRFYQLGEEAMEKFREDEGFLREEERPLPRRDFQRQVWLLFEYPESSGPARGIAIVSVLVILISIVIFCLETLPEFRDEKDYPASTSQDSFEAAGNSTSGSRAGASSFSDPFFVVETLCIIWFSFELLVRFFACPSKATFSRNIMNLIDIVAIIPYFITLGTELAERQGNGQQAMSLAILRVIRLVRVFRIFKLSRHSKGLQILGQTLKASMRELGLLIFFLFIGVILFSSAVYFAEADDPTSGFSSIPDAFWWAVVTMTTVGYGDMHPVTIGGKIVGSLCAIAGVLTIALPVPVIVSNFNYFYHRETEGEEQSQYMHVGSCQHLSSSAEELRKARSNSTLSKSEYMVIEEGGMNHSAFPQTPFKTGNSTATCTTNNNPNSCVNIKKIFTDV

| SMILES | IC50 [1] | IC50 ([2]; read-out: WB (IFNg) IC50 (nM, Avg)) | IC50 (hKv1.3) | IC50 [2, 3] |
| --- | --- | --- | --- | --- |
| CCCC[C@@H]1NC(=O)[C@H](CO)NC(=O)[C@H](Cc2c[nH]cn2)NC(=O)[C@H](CCC(=O)O)NC(=O)[C@@H]2CSSC[C@@H]3NC(=O)[C@H]([C@@H](C)O)NC(=O)[C@H](CCCCN)NC(=O)[C@H](CCCNC(=N)N)NC(=O)[C@H](CSSC[C@H](NC(=O)[C@H](CCCNC(=N)N)NC(=O)[C@H](CO)NC(=O)[C@H](CCCCN)NC(=O)[C@@H]4CCCN4C(=O)[C@H]([C@@H](C)CC)NC(=O)[C@H]([C@@H](C)O)NC(=O)[C@H](CC(=O)O)NC(=O)[C@H]([C@@H](C)CC)NC(=O)[C@@H](NC(=O)[C@H](CO)NC(=O)[C@@H](N)CCCNC(=N)N)CSSC[C@@H](C(N)=O)NC(=O)[C@H]([C@@H](C)O)NC(=O)CNC3=O)C(=O)N[C@@H]([C@@H](C)O)C(=O)N[C@@H](C)C(=O)N[C@@H](C)C(=O)N[C@@H](CCCCN)C(=O)N2)NC(=O)[C@H](Cc2ccccc2)NC(=O)[C@H](CO)NC(=O)[C@H](CC(C)C)NC(=O)[C@H](CCCNC(=N)N)NC(=O)[C@H](Cc2ccc(O)cc2)NC(=O)[C@H](CCCCN)NC1=O [[Glu18,Ala15,Lys16,Nle21]ShK-amide] | 1.35 nM | 1.29 nM | 0.202 nM |  |
| CC[C@H](C)[C@@H]1NC(=O)[C@@H](NC(=O)[C@H](CO)NC(=O)[C@@H](N)CCCNC(=N)N)CSSC[C@@H](C(=O)O)NC(=O)[C@H]([C@@H](C)O)NC(=O)CNC(=O)[C@@H]2CSSC[C@@H]3NC(=O)[C@H](CCC(N)=O)NC(=O)[C@H](Cc4ccccc4)NC(=O)[C@H](C)NC(=O)[C@H]([C@@H](C)O)NC(=O)[C@H](CSSC[C@H](NC(=O)[C@H](Cc4ccccc4)NC(=O)[C@H](CO)NC(=O)[C@H](CC(C)C)NC(=O)[C@H](CCCNC(=N)N)NC(=O)[C@H](Cc4ccc(O)cc4)NC(=O)[C@H](CCCCN)NC(=O)[C@H](CCSC)NC(=O)[C@H](CO)NC(=O)[C@H](Cc4c[nH]cn4)NC(=O)[C@H](CCC(=O)O)NC3=O)C(=O)N[C@@H](CCCNC(=N)N)C(=O)N[C@@H](CCCCN)C(=O)N[C@@H]([C@@H](C)O)C(=O)N2)NC(=O)[C@H](CCCNC(=N)N)NC(=O)[C@H](CO)NC(=O)[C@H](CCCCN)NC(=O)[C@@H]2CCCN2C(=O)[C@H]([C@@H](C)CC)NC(=O)[C@H]([C@@H](C)O)NC(=O)[C@H](CC(=O)O)NC1=O [[Glu18]ShK] | 0.047 nM |  | 0.117 nM | 0.083 nM |
| CC[C@H](C)[C@@H]1NC(=O)[C@@H](NC(=O)[C@H](CO)NC(=O)[C@@H](N)CCCNC(=N)N)CSSC[C@@H](C(=O)O)NC(=O)[C@H]([C@@H](C)O)NC(=O)CNC(=O)[C@@H]2CSSC[C@@H]3NC(=O)[C@H](CCC(N)=O)NC(=O)[C@H](Cc4ccccc4)NC(=O)[C@H](C)NC(=O)[C@H]([C@@H](C)O)NC(=O)[C@H](CSSC[C@H](NC(=O)[C@H](Cc4ccccc4)NC(=O)[C@H](CO)NC(=O)[C@H](CC(C)C)NC(=O)[C@H](CCCNC(=N)N)NC(=O)[C@H](Cc4ccc(O)cc4)NC(=O)[C@H](CCCCN)NC(=O)[C@H](CCSC)NC(=O)[C@H](CCC(=O)O)NC(=O)[C@H](Cc4c[nH]cn4)NC(=O)[C@H](CCCCN)NC3=O)C(=O)N[C@@H](CCCNC(=N)N)C(=O)N[C@@H](CCCCN)C(=O)N[C@@H]([C@@H](C)O)C(=O)N2)NC(=O)[C@H](CCCNC(=N)N)NC(=O)[C@H](CO)NC(=O)[C@H](CCCCN)NC(=O)[C@@H]2CCCN2C(=O)[C@H]([C@@H](C)CC)NC(=O)[C@H]([C@@H](C)O)NC(=O)[C@H](CC(=O)O)NC1=O [[Glu20]ShK] | 92 nM |  | 100 nM | 92 nM |
| CC[C@H](C)[C@@H]1NC(=O)[C@@H](NC(=O)[C@H](CO)NC(=O)[C@@H](N)CCCNC(=N)N)CSSC[C@@H](C(=O)O)NC(=O)[C@H]([C@@H](C)O)NC(=O)CNC(=O)[C@@H]2CSSC[C@@H]3NC(=O)[C@H](CCC(N)=O)NC(=O)[C@H](Cc4ccccc4)NC(=O)[C@H](C)NC(=O)[C@H]([C@@H](C)O)NC(=O)[C@H](CSSC[C@H](NC(=O)[C@H](Cc4ccccc4)NC(=O)[C@H](CO)NC(=O)[C@H](CC(C)C)NC(=O)[C@H](CCCNC(=N)N)NC(=O)[C@H](Cc4ccc(O)cc4)NC(=O)[C@H](CCCCN)NC(=O)[C@H](CCC(=O)O)NC(=O)[C@H](CO)NC(=O)[C@H](Cc4c[nH]cn4)NC(=O)[C@H](CCCCN)NC3=O)C(=O)N[C@@H](CCCNC(=N)N)C(=O)N[C@@H](CCCCN)C(=O)N[C@@H]([C@@H](C)O)C(=O)N2)NC(=O)[C@H](CCCNC(=N)N)NC(=O)[C@H](CO)NC(=O)[C@H](CCCCN)NC(=O)[C@@H]2CCCN2C(=O)[C@H]([C@@H](C)CC)NC(=O)[C@H]([C@@H](C)O)NC(=O)[C@H](CC(=O)O)NC1=O [[Glu21]ShK] | 18.5 nM |  | 3.33 nM | 28.1 nM |
| CC[C@H](C)[C@@H]1NC(=O)[C@@H](NC(=O)[C@H](CO)NC(=O)[C@@H](N)CCCNC(=N)N)CSSC[C@@H](C(=O)O)NC(=O)[C@H]([C@@H](C)O)NC(=O)CNC(=O)[C@@H]2CSSC[C@@H]3NC(=O)[C@H](CCC(N)=O)NC(=O)[C@H](Cc4ccccc4)NC(=O)[C@H](C)NC(=O)[C@H]([C@@H](C)O)NC(=O)[C@H](CSSC[C@H](NC(=O)[C@H](Cc4ccccc4)NC(=O)[C@H](CO)NC(=O)[C@H](CCC(=O)O)NC(=O)[C@H](CCCNC(=N)N)NC(=O)[C@H](Cc4ccc(O)cc4)NC(=O)[C@H](CCCCN)NC(=O)[C@H](CCSC)NC(=O)[C@H](CO)NC(=O)[C@H](Cc4c[nH]cn4)NC(=O)[C@H](CCCCN)NC3=O)C(=O)N[C@@H](CCCNC(=N)N)C(=O)N[C@@H](CCCCN)C(=O)N[C@@H]([C@@H](C)O)C(=O)N2)NC(=O)[C@H](CCCNC(=N)N)NC(=O)[C@H](CO)NC(=O)[C@H](CCCCN)NC(=O)[C@@H]2CCCN2C(=O)[C@H]([C@@H](C)CC)NC(=O)[C@H]([C@@H](C)O)NC(=O)[C@H](CC(=O)O)NC1=O [[Glu25]ShK] | 0.494 nM |  | 0.24 nM | 0.678 nM |
| CC[C@H](C)[C@@H]1NC(=O)[C@@H](NC(=O)[C@H](CO)NC(=O)[C@@H](N)CCCNC(=N)N)CSSC[C@@H](C(=O)O)NC(=O)[C@H]([C@@H](C)O)NC(=O)CNC(=O)[C@@H]2CSSC[C@@H]3NC(=O)[C@H](CCC(N)=O)NC(=O)[C@H](Cc4ccccc4)NC(=O)[C@H](C)NC(=O)[C@H]([C@@H](C)O)NC(=O)[C@H](CSSC[C@H](NC(=O)[C@H](Cc4ccccc4)NC(=O)[C@H](CCC(=O)O)NC(=O)[C@H](CC(C)C)NC(=O)[C@H](CCCNC(=N)N)NC(=O)[C@H](Cc4ccc(O)cc4)NC(=O)[C@H](CCCCN)NC(=O)[C@H](CCSC)NC(=O)[C@H](CO)NC(=O)[C@H](Cc4c[nH]cn4)NC(=O)[C@H](CCCCN)NC3=O)C(=O)N[C@@H](CCCNC(=N)N)C(=O)N[C@@H](CCCCN)C(=O)N[C@@H]([C@@H](C)O)C(=O)N2)NC(=O)[C@H](CCCNC(=N)N)NC(=O)[C@H](CO)NC(=O)[C@H](CCCCN)NC(=O)[C@@H]2CCCN2C(=O)[C@H]([C@@H](C)CC)NC(=O)[C@H]([C@@H](C)O)NC(=O)[C@H](CC(=O)O)NC1=O [[Glu26]ShK] | 0.202 nM |  | 0.317 nM | 0.4 nM |
| CC[C@H](C)[C@@H]1NC(=O)[C@@H](NC(=O)[C@H](CO)NC(=O)[C@@H](N)CCCNC(=N)N)CSSC[C@@H](C(=O)O)NC(=O)[C@H]([C@@H](C)O)NC(=O)CNC(=O)[C@@H]2CSSC[C@@H]3NC(=O)[C@H](CCC(N)=O)NC(=O)[C@H](Cc4ccccc4)NC(=O)[C@H](C)NC(=O)[C@H]([C@@H](C)O)NC(=O)[C@H](CSSC[C@H](NC(=O)[C@H](Cc4ccccc4)NC(=O)[C@H](CO)NC(=O)[C@H](CC(C)C)NC(=O)[C@H](CCCNC(=N)N)NC(=O)[C@H](Cc4ccc(O)cc4)NC(=O)[C@H](CCCCN)NC(=O)[C@H](CCSC)NC(=O)[C@H](CO)NC(=O)[C@H](Cc4c[nH]cn4)NC(=O)[C@H](CCCCN)NC3=O)C(=O)N[C@@H](CCC(=O)O)C(=O)N[C@@H](CCCCN)C(=O)N[C@@H]([C@@H](C)O)C(=O)N2)NC(=O)[C@H](CCCNC(=N)N)NC(=O)[C@H](CO)NC(=O)[C@H](CCCCN)NC(=O)[C@@H]2CCCN2C(=O)[C@H]([C@@H](C)CC)NC(=O)[C@H]([C@@H](C)O)NC(=O)[C@H](CC(=O)O)NC1=O [[Glu29]ShK] | 0.73 nM |  | 0.142 nM | 1.96 nM |
| CC[C@H](C)[C@@H]1NC(=O)[C@@H](NC(=O)[C@H](CO)NC(=O)[C@@H](N)CCCNC(=N)N)CSSC[C@@H](C(=O)O)NC(=O)[C@H]([C@@H](C)O)NC(=O)CNC(=O)[C@@H]2CSSC[C@@H]3NC(=O)[C@H](CCC(N)=O)NC(=O)[C@H](Cc4ccccc4)NC(=O)[C@H](C)NC(=O)[C@H]([C@@H](C)O)NC(=O)[C@H](CSSC[C@H](NC(=O)[C@H](Cc4ccccc4)NC(=O)[C@H](CO)NC(=O)[C@H](CC(C)C)NC(=O)[C@H](CCCNC(=N)N)NC(=O)[C@H](Cc4ccc(O)cc4)NC(=O)[C@H](CCCCN)NC(=O)[C@H](CCSC)NC(=O)[C@H](CO)NC(=O)[C@H](Cc4c[nH]cn4)NC(=O)[C@H](CCCCN)NC3=O)C(=O)N[C@@H](CCCNC(=N)N)C(=O)N[C@@H](CCC(=O)O)C(=O)N[C@@H]([C@@H](C)O)C(=O)N2)NC(=O)[C@H](CCCNC(=N)N)NC(=O)[C@H](CO)NC(=O)[C@H](CCCCN)NC(=O)[C@@H]2CCCN2C(=O)[C@H]([C@@H](C)CC)NC(=O)[C@H]([C@@H](C)O)NC(=O)[C@H](CC(=O)O)NC1=O [[Glu30]ShK] | 0.019 nM |  | 0.272 nM | 0.043 nM |
| CC[C@H](C)[C@@H]1NC(=O)[C@@H](NC(=O)[C@H](CO)NC(=O)[C@@H](N)CCCNC(=N)N)CSSC[C@@H](C(=O)O)NC(=O)[C@H]([C@@H](C)O)NC(=O)CNC(=O)[C@@H]2CSSC[C@@H]3NC(=O)[C@H](CCC(N)=O)NC(=O)[C@H](Cc4ccccc4)NC(=O)[C@H](C)NC(=O)[C@H]([C@@H](C)O)NC(=O)[C@H](CSSC[C@H](NC(=O)[C@H](Cc4ccccc4)NC(=O)[C@H](CO)NC(=O)[C@H](CC(C)C)NC(=O)[C@H](CCCNC(=N)N)NC(=O)[C@H](Cc4ccc(O)cc4)NC(=O)[C@H](CCCCN)NC(=O)[C@H](CCSC)NC(=O)[C@H](CO)NC(=O)[C@H](Cc4c[nH]cn4)NC(=O)[C@H](CCCCN)NC3=O)C(=O)N[C@@H](CCCNC(=N)N)C(=O)N[C@@H](CCCCN)C(=O)N[C@@H](CCC(=O)O)C(=O)N2)NC(=O)[C@H](CCCNC(=N)N)NC(=O)[C@H](CO)NC(=O)[C@H](CCCCN)NC(=O)[C@@H]2CCCN2C(=O)[C@H]([C@@H](C)CC)NC(=O)[C@H]([C@@H](C)O)NC(=O)[C@H](CC(=O)O)NC1=O [[Glu31]ShK] | 0.242 nM |  | 0.22 nM | 0.309 nM |
